Biological target: T1, F508del (Homo sapiens, UniProt P13569, DEL508-508)
T1 construct: expressed in transfected cells
Assay: Protocol 1: membrane potential optical assay (FLIPR III, voltage sensing dye), identification of potentiator compounds
Type: cell-based
Conditions: Table 3, compounds of Table 1
Outline: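 Gating potentiation is read as a membrane-potential fluorescence change (FLIPR III, voltage-sensing dye) after one forskolin addition under a Cl− gradient, with gluconate replacing chloride, pH 7.4. Cells are F508del-expressing NIH3T3 mouse fibroblasts held 24 h at 27 °C and exposed to compound before dye loading.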

T1 sequence (P13569 with tags, fused parts or gaps DEL508-508): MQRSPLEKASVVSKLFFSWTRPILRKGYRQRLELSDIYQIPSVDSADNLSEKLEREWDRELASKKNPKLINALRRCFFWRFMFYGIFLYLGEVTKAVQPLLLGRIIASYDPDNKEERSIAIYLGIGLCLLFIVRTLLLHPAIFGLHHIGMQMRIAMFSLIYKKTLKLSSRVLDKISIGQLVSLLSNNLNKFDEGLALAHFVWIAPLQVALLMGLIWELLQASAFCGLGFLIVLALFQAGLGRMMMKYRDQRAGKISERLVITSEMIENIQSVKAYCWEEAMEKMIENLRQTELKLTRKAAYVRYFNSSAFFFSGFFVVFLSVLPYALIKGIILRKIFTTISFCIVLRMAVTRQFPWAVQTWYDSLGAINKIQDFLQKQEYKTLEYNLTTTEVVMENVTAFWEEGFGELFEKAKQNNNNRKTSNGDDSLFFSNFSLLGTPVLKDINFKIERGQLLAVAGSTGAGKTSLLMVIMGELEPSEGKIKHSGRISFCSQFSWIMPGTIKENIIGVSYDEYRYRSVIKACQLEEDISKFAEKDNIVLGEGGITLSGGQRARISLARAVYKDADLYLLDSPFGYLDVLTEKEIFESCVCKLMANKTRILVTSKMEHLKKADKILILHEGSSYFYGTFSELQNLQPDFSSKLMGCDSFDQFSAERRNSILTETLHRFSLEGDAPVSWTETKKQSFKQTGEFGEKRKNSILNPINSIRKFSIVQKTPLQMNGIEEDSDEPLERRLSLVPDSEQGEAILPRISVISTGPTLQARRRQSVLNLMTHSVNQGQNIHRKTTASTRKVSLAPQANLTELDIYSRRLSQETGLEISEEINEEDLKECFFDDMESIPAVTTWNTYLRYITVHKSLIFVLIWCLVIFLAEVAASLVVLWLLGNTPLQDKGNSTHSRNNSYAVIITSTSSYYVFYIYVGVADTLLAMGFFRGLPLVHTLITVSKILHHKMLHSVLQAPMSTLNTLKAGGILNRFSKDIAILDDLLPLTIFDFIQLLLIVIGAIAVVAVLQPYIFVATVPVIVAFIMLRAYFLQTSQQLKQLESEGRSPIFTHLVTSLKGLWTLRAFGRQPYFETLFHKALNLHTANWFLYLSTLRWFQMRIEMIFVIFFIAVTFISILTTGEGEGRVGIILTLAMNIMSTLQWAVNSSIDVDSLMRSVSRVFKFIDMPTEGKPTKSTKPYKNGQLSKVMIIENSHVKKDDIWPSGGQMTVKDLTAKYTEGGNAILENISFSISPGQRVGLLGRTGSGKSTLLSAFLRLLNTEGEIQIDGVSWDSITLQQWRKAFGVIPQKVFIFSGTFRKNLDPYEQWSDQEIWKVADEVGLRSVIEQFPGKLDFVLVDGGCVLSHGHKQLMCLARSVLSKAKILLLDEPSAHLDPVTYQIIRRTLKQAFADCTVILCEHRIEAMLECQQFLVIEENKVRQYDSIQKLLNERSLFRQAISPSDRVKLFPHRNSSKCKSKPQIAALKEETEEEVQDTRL

EC30 | SMILES
+++ (“+++” means <3 uM) | CC(C)Oc1ccc(C(=O)NS(=O)(=O)c2cccc(N)n2)c(N2C[C@@H](C)CC2(C)C)n1 [Compound 1573, N-[(6-amino-2-pyridyl)sulfonyl]-6-isopropoxy-2-[(4S)-2,2,4-trimethylpyrrolidin-1-yl]pyridine-3-carboxamide]
++ (“++” means between 3 uM and 10 uM) | COC[C@H]1C[C@@H]1c1ccc(C(=O)NS(=O)(=O)c2cccc(N)n2)c(N2C[C@@H](C)CC2(C)C)n1 [Compound 1575, N-[(6-amino-2-pyridyl)sulfonyl]-6-[(1S,2S)-2-(methoxymethyl)cyclopropyl]-2-[(4S)-2,2,4-trimethylpyrrolidin-1-yl]pyridine-3-carboxamide]
+++ (“+++” means <3 uM) | CCOc1cccc2c1CN(Cc1ccc(C(C)C)cc1)C2(C)C(=O)NS(=O)(=O)c1cccc(N)n1 (stereo not shown) [Compound 1576, N-[(6-amino-2-pyridyl)sulfonyl]-4-ethoxy-2-[(4-isopropylphenyl)methyl]-1-methyl-isoindoline-1-carboxamide]
+++ (“+++” means <3 uM) | C[C@@H]1CN(c2nc(C(C)(C)C)c(C3=CC4CCC3C4)cc2C(=O)NS(=O)(=O)c2cccc(N)n2)C(C)(C)C1 (stereo partly drawn) [Compound 1577, N-[(6-amino-2-pyridyl)sulfonyl]-5-(3-bicyclo[2.2.1]hept-2-enyl)-6-tert-butyl-2-[(4S)-2,2,4-trimethylpyrrolidin-1-yl]pyridine-3-carboxamide]
+++ (“+++” means <3 uM) | C[C@@H]1CN(c2nc(-c3cc(F)cc(OCC(C)(C)O)c3)ccc2C(=O)NS(=O)(=O)c2ccccc2)C(C)(C)C1 [Compound 1581, N-(benzenesulfonyl)-6-[3-fluoro-5-(2-hydroxy-2-methyl-propoxy)phenyl]-2-[(4S)-2,2,4-trimethylpyrrolidin-1-yl]pyridine-3-carboxamide]
+++ (“+++” means <3 uM) | CCOc1cccc2c1CN(Cc1c(C)cc(C)cc1C)[C@@]2(C)C(=O)NS(=O)(=O)c1cccc(N)n1 [Compound 1582, (1R)—N-[(6-amino-2-pyridyl)sulfonyl]-4-ethoxy-1-methyl-2-[(2,4,6-trimethylphenyl)methyl]isoindoline-1-carboxamide]
++ (“++” means between 3 uM and 10 uM) | CCOc1cccc2c1CN(Cc1ccc(F)cc1)C2(C)C(=O)NS(=O)(=O)c1cccc(F)n1 (stereo not shown) [Compound 1583, 4-ethoxy-2-[(4-fluorophenyl)methyl]-N-[(6-fluoro-2-pyridyl)sulfonyl]-1-methyl-isoindoline-1-carboxamide]
+++ (“+++” means <3 uM) | CCOc1cccc2c1CN(Cc1c(C)cc(C)cc1C)C2(C)C(=O)NS(=O)(=O)c1ccc(CC)c(N)c1 (stereo not shown) [Compound 1584, N-(3-amino-4-ethyl-phenyl)sulfonyl-4-ethoxy-1-methyl-2-[(2,4,6-trimethylphenyl)methyl]isoindoline-1-carboxamide]
+++ (“+++” means <3 uM) | Cc1cc(C)c(Cn2nc(C(C)(C)C)cc2C(=O)NS(=O)(=O)c2ccncc2)c(C)c1 [Compound 1585, 5-tert-butyl-N-(4-pyridylsulfonyl)-2-[7(2,4,6-trimethylphenyl)methyl]pyrazole-3-carboxamide]
+++ (“+++” means <3 uM) | CCOc1cccc2c1CN(Cc1c(C)cc(C)cc1C)C2(C)C(=O)NS(=O)(=O)c1ccc(Cl)c(N)c1 (stereo not shown) [Compound 1587, N-(3-amino-4-chloro-phenyl)sulfonyl-4-ethoxy-1-methyl-2-[(2,4,6-trimethylphenyl)methyl]isoindoline-1-carboxamide]
+++ (“+++” means <3 uM) | CC(C)Oc1ccc(-c2ccc(C(=O)NS(=O)(=O)c3ccc(OCc4ccccc4)c(N)n3)c(N3[C@H](C)CC[C@@H]3C)n2)cn1 [Compound 1588, N-[(6-amino-5-benzyloxy-2-pyridyl)sulfonyl]-2-[(2S,5R)-2,5-dimethylpyrrolidin-1-yl]-6-(6-isopropoxy-3-pyridyl)pyridine-3-carboxamide]
+++ (“+++” means <3 uM) | Cc1cc(C)c(Oc2nc(N3[C@H](C)CC[C@@H]3C)c(C)cc2C(=O)NS(=O)(=O)c2cccc(N)n2)c(C)c1 [Compound 1589, N-[(6-amino-2-pyridyl)sulfonyl]-6-[(2R,5S)-2,5-dimethylpyrrolidin-1-yl]-5-methyl-2-(2,4,6-trimethylphenoxy)pyridine-3-carboxamide]
+++ (“+++” means <3 uM) | CC(C)=C(C)c1cnc(N2CC(C)CC2(C)C)c(C(=O)NS(=O)(=O)c2cccc(N)n2)c1 (stereo not shown) [Compound 1590, N-[(6-amino-2-pyridyl)sulfonyl]-5-(1,2-dimethylprop-1-enyl)-2-(2,2,4-trimethylpyrrolidin-1-yl)pyridine-3-carboxamide]
+++ (“+++” means <3 uM) | CCOc1cccc2c1CN(Cc1c(C)cc(C)cc1C)C2(C)C(=O)NS(=O)(=O)c1cccnc1N (stereo not shown) [Compound 1591, N-[(2-amino-3-pyridyl)sulfonyl]-4-ethoxy-1-methyl-2-[(2,4,6-trimethylphenyl)methyl]isoindoline-1-carboxamide]
+++ (“+++” means <3 uM) | C[C@@H]1CN(c2nc(C3=CCOCC3)ccc2C(=O)NS(=O)(=O)c2cccc(N)n2)C(C)(C)C1 [Compound 1594, N-[(6-amino-2-pyridyl)sulfonyl]-6-(3,6-dihydro-2H-pyran-4-yl)-2-[(4S)-2,2,4-trimethylpyrrolidin-1-yl]pyridine-3-carboxamide]
+++ (“+++” means <3 uM) | C[C@@H]1CN(c2nc(C3CCOCC3)ccc2C(=O)NS(=O)(=O)c2cccc(N)n2)C(C)(C)C1 [Compound 1595, N-[(6-amino-2-pyridyl)sulfonyl]-6-tetrahydropyran-4-yl-2-[(4S)-2,2,4-trimethylpyrrolidin-1-yl]pyridine-3-carboxamide]
+++ (“+++” means <3 uM) | CCOc1cccc2c1CN(Cc1c(C)cc(C)cc1C)C2(C)C(=O)NS(=O)(=O)c1ccc(Cl)c(N)n1 (stereo not shown) [Compound 1596, N-[(6-amino-5-chloro-2-pyridyl)sulfonyl]-4-ethoxy-1-methyl-2-[(2,4,6-trimethylphenyl)methyl]isoindoline-1-carboxamide]
+++ (“+++” means <3 uM) | CCOc1cccc2c1CN(Cc1c(C)cc(C)cc1C)C2(C)C(=O)NS(=O)(=O)c1cccc(C(F)F)n1 (stereo not shown) [Compound 1597, N-[[6-(difluoromethyl)-2-pyridyl]sulfonyl]-4-ethoxy-1-methyl-2-[(2,4,6-trimethylphenyl)methyl]isoindoline-1-carboxamide]
+++ (“+++” means <3 uM) | Cc1cc(C)c(Oc2nc(C3=CC(C)(C)CCC3=O)ccc2C(=O)NS(=O)(=O)c2cccc(N)n2)c(C)c1 [Compound 1598, N-[(6-amino-2-pyridyl)sulfonyl]-6-(3,3-dimethyl-6-oxo-cyclohexen-1-yl)-2-(2,4,6-trimethylphenoxy)pyridine-3-carboxamide]
+++ (“+++” means <3 uM) | CC(C)Cc1ccc(C(=O)NS(=O)(=O)c2cccc(N)n2)c(N2C[C@@H](C)CC2(C)C)n1 [Compound 1599, N-[(6-amino-2-pyridyl)sulfonyl]-6-isobutyl-2-[(4S)-2,2,4-trimethylpyrrolidin-1-yl]pyridine-3-carboxamide]
+++ (“+++” means <3 uM) | CC1CN(c2nc(C(C)(C)C)c(C3=CCCCC3)cc2C(=O)NS(=O)(=O)c2cccc(N)n2)C(C)(C)C1 (stereo not shown) [Compound 1601, N-[(6-amino-2-pyridyl)sulfonyl]-6-tert-butyl-5-(cyclohexen-1-yl)-2-(2,2,4-trimethylpyrrolidin-1-yl)pyridine-3-carboxamide]

SMILES | EC30
Cc1ccnc(C)c1Oc1nc(-c2cc(F)cc(OCC(C)C)c2)ccc1C(=O)NS(=O)(=O)c1cccc(N)n1 [Compound 1574, N-[(6-amino-2-pyridyl)sulfonyl]-2-[(2,4-dimethyl-3-pyridyl)oxy]-6-(3-fluoro-5-isobutoxy-phenyl)pyridine-3-carboxamide] | ++ (“++” means between 3 uM and 10 uM)
CC(C)COc1cc(F)cc(-c2ccc(C(=O)NS(=O)(=O)c3cccc(N)n3)c(OCCC3CCOCC3)n2)c1 [Compound 1579, N-[(6-amino-2-pyridyl)sulfonyl]-6-(3-fluoro-5-isobutoxy-phenyl)-2-(2-tetrahydropyran-4-ylethoxy)pyridine-3-carboxamide] | +++ (“+++” means <3 uM)
CC(C)COc1cc(F)cc(-c2ccc(C(=O)NS(=O)(=O)c3cccc(N)n3)c(OC3CCC3)n2)c1 [Compound 1580, N-[(6-amino-2-pyridyl)sulfonyl]-2-(cyclobutoxy)-6-(3-fluoro-5-isobutoxy-phenyl)pyridine-3-carboxamide] | +++ (“+++” means <3 uM)
CC(=O)NC1CCCN(S(=O)(=O)NC(=O)c2ccc(-c3cc(F)cc(OCC(C)C)c3)nc2N2CC(C)CC2(C)C)C1 (stereo not shown) [Compound 1586, N-[(3-acetamido-1-piperidyl)sulfonyl]-6-(3-fluoro-5-isobutoxy-phenyl)-2-(2,2,4-trimethylpyrrolidin-1-yl)pyridine-3-carboxamide] | +++ (“+++” means <3 uM)
CC(C)COc1cc(F)cc(-c2ccc(C(=O)NS(=O)(=O)c3cccc(N)n3)c(O[C@@H]3CCOC3)n2)c1 [Compound 1592, N-[(6-amino-2-pyridyl)sulfonyl]-6-(3-fluoro-5-isobutoxy-phenyl)-2-[(3R)-tetrahydrofuran-3-yl]oxy-pyridine-3-carboxamide] | +++ (“+++” means <3 uM)
CC(C)COc1cc(F)cc(-c2ccc(C(=O)NS(=O)(=O)c3cccnc3N)c(N3C[C@@H](C)CC3(C)C)n2)c1 [Compound 1593, N-[(2-amino-3-pyridyl)sulfonyl]-6-(3-fluoro-5-isobutoxy-phenyl)-2-[(4S)-2,2,4-trimethylpyrrolidin-1-yl]pyridine-3-carboxamide] | +++ (“+++” means <3 uM)
CC(C)COc1cc(F)cc(-c2ccc(C(=O)NS(=O)(=O)N3CCCC(NS(C)(=O)=O)C3)c(N3CC(C)CC3(C)C)n2)c1 (stereo not shown) [Compound 1600, 6-(3-fluoro-5-isobutoxy-phenyl)-N—[[3-(methanesulfonamido)-1-piperidyl]sulfonyl]-2-(2,2,4-trimethylpyrrolidin-1-yl)pyridine-3-carboxamide] | +++ (“+++” means <3 uM)

— patent US10758534B2 (Vertex Pharmaceuticals Incorporated, priority 2014, dated 2020)
